IC50 data for 28 molecules are collected here from patent publication US20260014133A1, “SUBSTITUTED 3-(l-OXOISOINDOLIN-2-YL)PIPERIDINE-2,6-DIONE/2-(2,6-DIOXOPIPERIDIN-3-YL)ISOINDOLINE-l,3-DIONE ANALOGS AS MODULATORS OF CEREBLON PROTEIN” (St. Jude's Chidren's Research Hospital, Inc., priority 2022, published 2026).

Bounds are passed on as bounds.

In the assay the target is 6×His-CRBN-DDB1 protein (Homo sapiens (Human), UniProt Q96SW2). Put plainly: CRBN Fluorescence Polarization Assay. The class given is binding. The settings on record: competitive fluorescence polarization; Cy5-O-Len probe 30 nM, 6×His-CRBN-DDB1 200 nM; 1 hour at room temperature; mean of three independent determinations; read-out: CRBN FP (IC50). How it is done: In this competitive fluorescent polarization assay Cy5 conjugated lenalidomide analog (Cy5-O-Len)^13 was used as a fluorescent probe. 6×His-CRBN-DDB1 protein (200 nM) and Cy5-O-Len probe (30 nM) were combined in 20 mM HEPES pH 7, 150 mM NaCl, 0.005% Tween-20 assay buffer. 20 μL of this assay cocktail was dispensed into wells of Corning 3821 black 384-well plates. Compounds were transferred to the assay plate from a dose-response plate using a Pintool on a Biomek FXP Laboratory Automation Workstation (Beckman Coulter). The plates were incubated in the dark for 1 hour at room temperature and then read on an Envision plate reader (PerkinElmer, Massachusetts, USA). IC50 values were determined using a proprietary software RISE (Robust Investigation of Screening Experiments), developed in house on the Pipeline Pilot platform (Biovia, v. 17.2.0). Data represent the mean of three independent determinations.
6×His-CRBN-DDB1 protein, sequence (Q96SW2 whole entry): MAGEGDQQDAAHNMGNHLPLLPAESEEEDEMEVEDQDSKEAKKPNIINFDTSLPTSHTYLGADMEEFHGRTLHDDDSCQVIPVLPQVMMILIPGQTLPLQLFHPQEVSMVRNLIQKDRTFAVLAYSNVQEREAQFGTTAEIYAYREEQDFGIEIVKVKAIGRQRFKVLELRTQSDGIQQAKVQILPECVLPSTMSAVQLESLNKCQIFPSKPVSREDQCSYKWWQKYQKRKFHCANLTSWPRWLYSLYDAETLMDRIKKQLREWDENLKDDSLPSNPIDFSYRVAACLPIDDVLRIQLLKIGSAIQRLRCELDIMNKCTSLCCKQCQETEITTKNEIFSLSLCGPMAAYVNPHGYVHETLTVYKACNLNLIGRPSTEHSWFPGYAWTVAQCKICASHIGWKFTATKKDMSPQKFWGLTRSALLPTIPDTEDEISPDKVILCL
6×His-CRBN-DDB1 protein, sequence (Q16531 whole entry partner): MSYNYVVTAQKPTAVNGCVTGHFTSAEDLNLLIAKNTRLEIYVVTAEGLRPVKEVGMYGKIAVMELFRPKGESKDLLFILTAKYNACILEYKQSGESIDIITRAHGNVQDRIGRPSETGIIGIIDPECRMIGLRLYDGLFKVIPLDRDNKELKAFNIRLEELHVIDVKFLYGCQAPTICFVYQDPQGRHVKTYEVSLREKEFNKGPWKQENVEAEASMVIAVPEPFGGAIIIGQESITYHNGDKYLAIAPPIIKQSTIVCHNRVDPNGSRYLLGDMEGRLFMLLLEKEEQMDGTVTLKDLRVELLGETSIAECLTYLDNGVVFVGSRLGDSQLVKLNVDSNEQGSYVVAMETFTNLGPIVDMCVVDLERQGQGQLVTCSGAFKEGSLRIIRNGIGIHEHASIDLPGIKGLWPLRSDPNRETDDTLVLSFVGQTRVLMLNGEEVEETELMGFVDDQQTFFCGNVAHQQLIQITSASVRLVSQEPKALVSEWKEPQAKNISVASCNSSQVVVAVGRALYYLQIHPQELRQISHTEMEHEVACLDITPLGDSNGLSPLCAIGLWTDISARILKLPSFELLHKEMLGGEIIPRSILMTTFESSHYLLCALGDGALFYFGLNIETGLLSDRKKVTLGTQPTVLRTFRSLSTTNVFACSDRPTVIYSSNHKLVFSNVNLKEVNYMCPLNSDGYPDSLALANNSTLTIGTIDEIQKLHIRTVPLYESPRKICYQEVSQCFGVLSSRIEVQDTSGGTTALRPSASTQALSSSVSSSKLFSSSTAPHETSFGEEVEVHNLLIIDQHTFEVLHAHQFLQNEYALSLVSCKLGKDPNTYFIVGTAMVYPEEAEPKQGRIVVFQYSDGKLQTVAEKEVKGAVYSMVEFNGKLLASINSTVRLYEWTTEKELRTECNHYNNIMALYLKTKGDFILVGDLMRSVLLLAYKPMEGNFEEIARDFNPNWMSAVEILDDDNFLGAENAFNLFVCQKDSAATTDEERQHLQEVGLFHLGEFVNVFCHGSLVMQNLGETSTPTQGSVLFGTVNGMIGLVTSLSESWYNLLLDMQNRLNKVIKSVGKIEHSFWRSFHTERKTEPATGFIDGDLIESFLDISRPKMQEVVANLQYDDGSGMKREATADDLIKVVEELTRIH
Cereblon binding activity was determined as described herein above, and the results are provided below in Table 2 for representative disclosed compounds. Compound number (“Cmpd No.”) refers to the compound number (and associated compound information such as structure, name, etc.) as provided in Table 1. In Table 2 below: cereblon binding IC50 values are categorized as follows: “A” represents IC50 value<1 μM, “B” represents IC50 value between 1 and 10 μM, and “C” represents IC50 value>10 μM.
In general terms: Polarisation of emitted light reports the rotation of a fluorescent probe.
By IC50 is commonly meant the concentration that gives 50% inhibition. Take `COc1ccc(C(=O)Nc2ccc3c(c2)CN(C2CCC(=O)NC2=O)C3=O)cc1` (stereo not shown) [Compound 40, N-(2-(2,6-dioxopiperidin-3-yl)-1-oxoisoindolin-5-yl)-4-methoxybenzamide]: the concentration for half-maximal inhibition (IC50) is below 1000 nM.

For `O=C1CCC(N2Cc3cc(NC(=O)c4ccccc4F)ccc3C2=O)C(=O)N1` (stereo not shown) [Compound 37, N-(2-(2,6-dioxopiperidin-3-yl)-1-oxoisoindolin-5-yl)-2-fluorobenzamide], the IC50 lay in the range of 1000 to 10000 nM.

As to `O=C1CCC(N2Cc3cc(NC(=O)c4[nH]c5ccccc5c4Cl)ccc3C2=O)C(=O)N1` (stereo not shown) [Compound 26, 3-chloro-N-(2-(2,6-dioxopiperidin-3-yl)-1-oxoisoindolin-5-yl)-1H-indole-2-carboxamide], the IC50 is above 10000 nM.

For the molecule `CC(N)c1ccc(C(=O)Nc2ccc3c(c2)CN(C2CCC(=O)NC2=O)C3=O)cc1` (stereo not shown) [Compound 29, 4-(1-aminoethyl)-N-(2-(2,6-dioxopiperidin-3-yl)-1-oxoisoindolin-5-yl)benzamide], the IC50 lay within 1000 to 10000 nM.

As for `Cc1ccc(C(=O)Nc2ccc3c(c2)CN(C2CCC(=O)NC2=O)C3=O)cn1` (stereo not shown) [Compound 20, N-(2-(2,6-dioxopiperidin-3-yl)-1-oxoisoindolin-5-yl)-6-methylnicotinamide], the IC50 lay within 1000 to 10000 nM.

As for `O=C1CCC(N2Cc3cc(NC(=O)c4ccccc4Oc4ccccc4)ccc3C2=O)C(=O)N1` (stereo not shown) [Compound 23, N-(2-(2,6-dioxopiperidin-3-yl)-1-oxoisoindolin-5-yl)-2-phenoxybenzamide], the IC50 is below 1000 nM.

In the case of `Cc1cccc(C(=O)Nc2ccc3c(c2)CN(C2CCC(=O)NC2=O)C3=O)c1Cl` (stereo not shown) [Compound 57, 2-chloro-N-(2-(2,6-dioxopiperidin-3-yl)-1-oxoisoindolin-5-yl)-3-methylbenzamide], the IC50 fell in the range of 1000 to 10000 nM.

As to `N#Cc1ccccc1C(=O)Nc1ccc2c(c1)CN(C1CCC(=O)NC1=O)C2=O` (stereo not shown) [Compound 51, 2-cyano-N-(2-(2,6-dioxopiperidin-3-yl)-1-oxoisoindolin-5-yl)benzamide], the IC50 fell in the range of 1000 to 10000 nM.

Regarding `O=C1CCC(N2Cc3cc(NC(=O)c4ccc(C(F)(F)F)cc4)ccc3C2=O)C(=O)N1` (stereo not shown) [Compound 15, N-(2-(2,6-dioxopiperidin-3-yl)-1-oxoisoindolin-5-yl)-4-(trifluoromethyl)benzamide], the IC50 was below 1000 nM.

Consider `O=C1CCC(N2Cc3cc(NC(=O)c4cccc(OC(F)(F)F)c4)ccc3C2=O)C(=O)N1` (stereo not shown) [Compound 44, N-(2-(2,6-dioxopiperidin-3-yl)-1-oxoisoindolin-5-yl)-3-(trifluoromethoxy)benzamide], for which the IC50 is 1000 to 10000 nM.

Take `Cc1cc(C(=O)Nc2ccc3c(c2)CN(C2CCC(=O)NC2=O)C3=O)ccc1F` (stereo not shown) [Compound 56, N-(2-(2,6-dioxopiperidin-3-yl)-1-oxoisoindolin-5-yl)-4-fluoro-3-methylbenzamide]: the IC50 was in the range of 1000 to 10000 nM.

Take `Cc1ccc2c(Nc3ccc4c(c3)CN(C3CCC(=O)NC3=O)C4=O)noc2c1` (stereo not shown) [Compound 19, 3-(5-((6-methylbenzo[d]isoxazol-3-yl)amino)-1-oxoisoindolin-2-yl)piperidine-2,6-dione]: the half-maximal inhibitory concentration (IC50) is below 1000 nM.

As to `O=C1CCC(N2Cc3cc(NC(=O)c4ccc(OC(F)(F)F)cc4)ccc3C2=O)C(=O)N1` (stereo not shown) [Compound 43, N-(2-(2,6-dioxopiperidin-3-yl)-1-oxoisoindolin-5-yl)-4-(trifluoromethoxy)benzamide], the half-maximal inhibitory concentration (IC50) fell in the range of 1000 to 10000 nM.

For `Cc1ccc(NC(=O)Nc2ccc3c(c2)CN(C2CCC(=O)NC2=O)C3=O)cc1` (stereo not shown) [Compound 17, 1-(2-(2,6-dioxopiperidin-3-yl)-1-oxoisoindolin-5-yl)-3-(p-tolyl)urea], the IC50 was 1000 to 10000 nM.

Consider `Cc1cccc(C(=O)Nc2ccc3c(c2)CN(C2CCC(=O)NC2=O)C3=O)n1` (stereo not shown) [Compound 35, N-(2-(2,6-dioxopiperidin-3-yl)-1-oxoisoindolin-5-yl)-6-methylpicolinamide], for which the 50% inhibitory concentration (IC50) fell in the range of 1000 to 10000 nM.

For `O=C1CCC(N2Cc3cc(NC(=O)Cc4ccc(O)cc4)ccc3C2=O)C(=O)N1` (stereo not shown) [Compound 24, N-(2-(2,6-dioxopiperidin-3-yl)-1-oxoisoindolin-5-yl)-2-(4-hydroxyphenyl)acetamide], the IC50 was below 1000 nM.

For `O=C1CCC(N2Cc3cc(NC(=O)c4ccc(C5CC5)cc4)ccc3C2=O)C(=O)N1` (stereo not shown) [Compound 48, 4-cyclopropyl-N-(2-(2,6-dioxopiperidin-3-yl)-1-oxoisoindolin-5-yl)benzamide], the IC50 lay within 1000 to 10000 nM.

Regarding `N#Cc1ccc(C(=O)Nc2ccc3c(c2)CN(C2CCC(=O)NC2=O)C3=O)cc1` (stereo not shown) [Compound 52, 4-cyano-N-(2-(2,6-dioxopiperidin-3-yl)-1-oxoisoindolin-5-yl)benzamide], the IC50 lay in the range of 1000 to 10000 nM.

In the case of `COCCOc1cccc(C(=O)Nc2ccc3c(c2)CN(C2CCC(=O)NC2=O)C3=O)c1` (stereo not shown) [Compound 53, N-(2-(2,6-dioxopiperidin-3-yl)-1-oxoisoindolin-5-yl)-3-(2-methoxyethoxy)benzamide], the IC50 is 1000 to 10000 nM.

For `O=C1CCC(N2Cc3cc(Nc4noc5ccccc45)ccc3C2=O)C(=O)N1` (stereo not shown) [Compound 38, 3-(5-(benzo[d]isoxazol-3-ylamino)-1-oxoisoindolin-2-yl)piperidine-2,6-dione], the IC50 was below 1000 nM.

On to `CN(C)c1cccc(C(=O)Nc2ccc3c(c2)CN(C2CCC(=O)NC2=O)C3=O)c1` (stereo not shown) [Compound 60, 3-(dimethylamino)-N-(2-(2,6-dioxopiperidin-3-yl)-1-oxoisoindolin-5-yl)benzamide], for which the IC50 was in the range of 1000 to 10000 nM.

As for `COc1cc(C)cc(C(=O)Nc2ccc3c(c2)CN(C2CCC(=O)NC2=O)C3=O)c1` (stereo not shown) [Compound 61, N-(2-(2,6-dioxopiperidin-3-yl)-1-oxoisoindolin-5-yl)-3-methoxy-5-methylbenzamide], the IC50 is 1000 to 10000 nM.

Regarding `N#Cc1cccc(C(=O)Nc2ccc3c(c2)CN(C2CCC(=O)NC2=O)C3=O)c1` (stereo not shown) [Compound 9, 3-cyano-N-(2-(2,6-dioxopiperidin-3-yl)-1-oxoisoindolin-5-yl)benzamide], the IC50 is below 1000 nM.

As to `O=C1CCC(N2Cc3cc(NC(=O)c4ccc(CN5CCOCC5)cc4)ccc3C2=O)C(=O)N1` (stereo not shown) [Compound 32, N-(2-(2,6-dioxopiperidin-3-yl)-1-oxoisoindolin-5-yl)-4-(morpholinomethyl)benzamide], the IC50 lay in the range of 1000 to 10000 nM.

`O=C1CCC(N2Cc3cc(NC(=O)c4ccc5nc[nH]c5c4)ccc3C2=O)C(=O)N1` (stereo not shown) [Compound 27, N-(2-(2,6-dioxopiperidin-3-yl)-1-oxoisoindolin-5-yl)-1H-benzo[d]imidazole-6-carboxamide]: the IC50 was below 1000 nM.

Take `O=C1CCC(N2Cc3cc(NC(=O)COc4ccccc4)ccc3C2=O)C(=O)N1` (stereo not shown) [Compound 64, N-(2-(2,6-dioxopiperidin-3-yl)-1-oxoisoindolin-5-yl)-2-phenoxyacetamide]: the IC50 was below 1000 nM.

For `O=C1CCC(N2Cc3cc(NC(=O)c4ccc(-c5ccn[nH]5)cc4)ccc3C2=O)C(=O)N1` (stereo not shown) [Compound 21, N-(2-(2,6-dioxopiperidin-3-yl)-1-oxoisoindolin-5-yl)-4-(1H-pyrazol-5-yl)benzamide], the IC50 lay in the range of 1000 to 10000 nM.

As to `O=C1CCC(N2Cc3cc(NC(=O)c4ccc(Cl)cc4)ccc3C2=O)C(=O)N1` (stereo not shown) [Compound 13, 4-chloro-N-(2-(2,6-dioxopiperidin-3-yl)-1-oxoisoindolin-5-yl)benzamide], the IC50 was below 1000 nM.
